Here are results for ten molecules from article PMC7646624 (European journal of medicinal chemistry, 2020).

Molecules are shown by their SMILES. “Also recorded” adds a separate entry of the source.

In one experiment the target is PRMT6 (Homo sapiens, UniProt Q96LA8). In words: Methyltransferase profiling. The class given is biochemical.
A further experiment has as its target PRMT1 (Homo sapiens, UniProt Q99873). The experiment can be described thus: Methyltransferase profiling. The class given is biochemical.
The target in a further experiment is T1, PRMT4 (Homo sapiens, UniProt Q86X55).
T1 sequence (Q86X55 1-608): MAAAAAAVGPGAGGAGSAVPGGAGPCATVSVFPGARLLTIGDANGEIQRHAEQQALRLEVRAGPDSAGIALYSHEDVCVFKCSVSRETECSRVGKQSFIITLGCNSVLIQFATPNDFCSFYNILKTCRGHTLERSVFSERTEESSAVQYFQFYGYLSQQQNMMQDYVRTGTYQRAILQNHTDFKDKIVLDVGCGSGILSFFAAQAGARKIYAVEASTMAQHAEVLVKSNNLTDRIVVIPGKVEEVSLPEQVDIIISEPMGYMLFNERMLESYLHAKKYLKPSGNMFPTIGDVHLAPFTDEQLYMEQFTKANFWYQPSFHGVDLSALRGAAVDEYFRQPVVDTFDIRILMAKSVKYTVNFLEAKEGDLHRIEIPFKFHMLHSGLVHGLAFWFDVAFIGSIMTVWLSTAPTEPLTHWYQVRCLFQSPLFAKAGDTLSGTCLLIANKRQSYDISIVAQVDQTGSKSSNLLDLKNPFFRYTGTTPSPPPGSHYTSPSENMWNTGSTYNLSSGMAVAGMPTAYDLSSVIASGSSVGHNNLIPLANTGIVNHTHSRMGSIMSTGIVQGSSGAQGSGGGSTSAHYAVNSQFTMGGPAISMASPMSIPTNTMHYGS
In words: Methyltransferase profiling. Type of experiment: biochemical.

The target of another experiment is PRMT5-MEP50 complex (Homo sapiens, UniProt O14744). In words: Methyltransferase profiling. The class given is biochemical.
A further experiment has as its target PRMT3 (Homo sapiens, UniProt O60678). The experiment can be described thus: biochemical.
A further experiment concerns the target PRMT5 Alone (Homo sapiens, UniProt O14744). The experiment can be described thus: biochemical.
The target of another experiment is SUV39H2 (Homo sapiens, UniProt Q9H5I1). The experiment can be described thus: Methyltransferase profiling. The class given is biochemical.
Experiment [1] relates to panel of Methyltransferases. The experiment can be described thus: Methyltransferase profiling. Particulars: omitted from Table 2. Type of experiment: biochemical.
Experiment [2] deals with T2, GST-DOT1L (Homo sapiens, UniProt Q8TEK3). In words: In vitro radio-isotope labeling DOT1L histone methyltransferase. Particulars: ratio of IC50 values, initial radio-isotope assays.
In experiment [3] the test system is H3K4, H3K27, H3K36, H4K20 methylation. In words: Western blot analysis of other histone methylation marks in MLL-AF9 cells.
Another experiment concerns H3K79 methylation. In words: Western blot analysis of H3K79 methylation in MLL-AF9 cells.
Experiment [4] deals with T2, GST-DOT1L. The experiment can be described thus: Saturation transfer difference. The settings on record: SAH added in five-fold molar excess. Type of experiment: binding.
Experiment [5] concerns MLL-AF9 transformed cells. Particulars: various doses.
The next experiment deals with E2A-HLF cells. Particulars: DOT1L-independent negative control line.
Experiment [6] has as its system MLL-AF9 transformed cells.

SUV39H2, sequence (Q9H5I1 whole entry): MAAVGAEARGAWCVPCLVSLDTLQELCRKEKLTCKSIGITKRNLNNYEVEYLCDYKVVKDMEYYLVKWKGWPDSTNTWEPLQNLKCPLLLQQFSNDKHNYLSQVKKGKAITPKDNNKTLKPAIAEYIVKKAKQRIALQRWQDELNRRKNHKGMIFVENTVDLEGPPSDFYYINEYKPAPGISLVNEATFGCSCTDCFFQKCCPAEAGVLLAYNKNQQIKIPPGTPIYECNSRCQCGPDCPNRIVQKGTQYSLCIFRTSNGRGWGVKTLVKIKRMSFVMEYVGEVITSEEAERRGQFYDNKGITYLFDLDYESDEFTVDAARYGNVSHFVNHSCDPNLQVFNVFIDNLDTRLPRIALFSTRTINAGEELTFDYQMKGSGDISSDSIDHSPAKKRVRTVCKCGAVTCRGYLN
PRMT6, sequence (Q96LA8 whole entry): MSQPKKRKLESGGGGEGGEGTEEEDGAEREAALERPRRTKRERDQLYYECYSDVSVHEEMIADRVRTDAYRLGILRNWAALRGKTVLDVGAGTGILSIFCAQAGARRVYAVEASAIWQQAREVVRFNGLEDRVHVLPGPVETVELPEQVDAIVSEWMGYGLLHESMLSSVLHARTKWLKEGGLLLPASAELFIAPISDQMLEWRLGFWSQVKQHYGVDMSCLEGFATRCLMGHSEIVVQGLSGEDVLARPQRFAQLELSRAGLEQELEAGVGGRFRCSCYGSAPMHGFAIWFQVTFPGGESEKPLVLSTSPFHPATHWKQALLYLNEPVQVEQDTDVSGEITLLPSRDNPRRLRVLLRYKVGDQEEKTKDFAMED
PRMT5-MEP50 complex, sequence (O14744 whole entry): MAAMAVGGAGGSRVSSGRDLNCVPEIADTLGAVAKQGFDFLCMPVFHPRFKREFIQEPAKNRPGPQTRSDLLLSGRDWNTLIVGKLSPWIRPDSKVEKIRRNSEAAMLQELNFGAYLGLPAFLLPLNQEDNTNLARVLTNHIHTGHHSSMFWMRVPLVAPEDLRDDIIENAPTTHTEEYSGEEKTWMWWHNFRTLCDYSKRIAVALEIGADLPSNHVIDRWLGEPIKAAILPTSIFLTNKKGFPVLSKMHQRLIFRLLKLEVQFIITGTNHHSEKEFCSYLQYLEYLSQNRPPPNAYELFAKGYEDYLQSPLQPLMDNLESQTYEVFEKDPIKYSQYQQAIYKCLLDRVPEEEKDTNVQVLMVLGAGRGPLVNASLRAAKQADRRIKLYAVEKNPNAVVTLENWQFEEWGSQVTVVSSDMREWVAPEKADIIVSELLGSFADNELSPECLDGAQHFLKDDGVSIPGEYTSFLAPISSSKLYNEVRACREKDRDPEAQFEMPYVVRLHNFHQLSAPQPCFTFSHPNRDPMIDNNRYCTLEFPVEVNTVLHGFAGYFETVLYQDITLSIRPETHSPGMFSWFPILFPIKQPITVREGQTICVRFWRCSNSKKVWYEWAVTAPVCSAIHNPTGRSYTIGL
PRMT5-MEP50 complex, sequence (Q9BQA1 whole entry partner): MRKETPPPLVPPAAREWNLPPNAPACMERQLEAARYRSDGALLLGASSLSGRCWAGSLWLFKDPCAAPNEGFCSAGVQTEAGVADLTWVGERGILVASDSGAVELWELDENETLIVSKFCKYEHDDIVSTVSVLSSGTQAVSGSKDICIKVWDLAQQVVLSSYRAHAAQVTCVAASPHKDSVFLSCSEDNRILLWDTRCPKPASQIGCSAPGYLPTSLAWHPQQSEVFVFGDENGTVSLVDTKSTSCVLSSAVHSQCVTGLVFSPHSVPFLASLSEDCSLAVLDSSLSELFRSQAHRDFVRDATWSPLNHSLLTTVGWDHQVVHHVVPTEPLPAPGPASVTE
PRMT3, sequence (O60678 whole entry): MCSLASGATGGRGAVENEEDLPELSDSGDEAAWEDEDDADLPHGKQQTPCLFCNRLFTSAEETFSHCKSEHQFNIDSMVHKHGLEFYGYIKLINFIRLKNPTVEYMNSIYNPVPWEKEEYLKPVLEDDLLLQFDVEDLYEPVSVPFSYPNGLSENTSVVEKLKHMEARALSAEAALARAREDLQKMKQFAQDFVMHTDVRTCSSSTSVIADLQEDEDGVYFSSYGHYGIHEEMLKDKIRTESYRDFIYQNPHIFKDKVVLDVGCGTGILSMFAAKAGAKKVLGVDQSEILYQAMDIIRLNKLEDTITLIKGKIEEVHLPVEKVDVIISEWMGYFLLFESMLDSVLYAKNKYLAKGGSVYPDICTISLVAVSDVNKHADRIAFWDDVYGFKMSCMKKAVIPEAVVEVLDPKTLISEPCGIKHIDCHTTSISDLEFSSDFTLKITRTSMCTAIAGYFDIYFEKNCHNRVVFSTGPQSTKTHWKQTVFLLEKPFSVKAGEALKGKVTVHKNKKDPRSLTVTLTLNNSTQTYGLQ
PRMT1, sequence (Q99873 whole entry): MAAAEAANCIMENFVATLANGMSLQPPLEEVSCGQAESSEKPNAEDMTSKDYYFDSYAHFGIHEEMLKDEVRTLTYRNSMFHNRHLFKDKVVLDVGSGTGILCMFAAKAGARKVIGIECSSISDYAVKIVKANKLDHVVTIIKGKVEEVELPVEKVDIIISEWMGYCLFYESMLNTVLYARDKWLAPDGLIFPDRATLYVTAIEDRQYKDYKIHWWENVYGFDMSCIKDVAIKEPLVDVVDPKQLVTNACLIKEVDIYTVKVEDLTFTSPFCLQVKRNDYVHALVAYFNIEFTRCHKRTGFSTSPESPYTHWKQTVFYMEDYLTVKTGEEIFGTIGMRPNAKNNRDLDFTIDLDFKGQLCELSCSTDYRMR
PRMT5 Alone, sequence (O14744 whole entry): as the sequence (O14744 whole entry) above
T2 sequence (Q8TEK3 1-420): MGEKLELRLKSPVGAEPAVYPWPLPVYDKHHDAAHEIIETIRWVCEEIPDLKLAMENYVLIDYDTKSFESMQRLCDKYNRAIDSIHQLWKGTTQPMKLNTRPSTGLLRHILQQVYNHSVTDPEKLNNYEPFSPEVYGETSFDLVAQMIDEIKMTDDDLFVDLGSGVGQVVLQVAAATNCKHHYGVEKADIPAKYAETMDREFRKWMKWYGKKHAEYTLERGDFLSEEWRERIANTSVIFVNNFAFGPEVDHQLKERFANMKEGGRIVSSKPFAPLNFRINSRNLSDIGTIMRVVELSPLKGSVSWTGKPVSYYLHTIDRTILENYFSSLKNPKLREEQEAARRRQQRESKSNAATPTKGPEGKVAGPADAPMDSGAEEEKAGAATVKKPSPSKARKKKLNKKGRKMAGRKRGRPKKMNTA

Turning to `Cc1ccc(NC(=O)c2ncn(CC(=O)NCc3ccc4c(N)nccc4c3)n2)cc1C` [Compound 19, 1-(2-(((1-aminoisoquinolin-6-yl)methyl)amino)-2-oxoethyl)-N-(3,4-dimethylphenyl)-1H-1,2,4-triazole-3-carboxamide], the 50% inhibitory concentration (IC50) on PRMT6, at PRMT1, at PRMT4 and against PRMT5-MEP50 complex was over 250 µM each time.
For the molecule `Nc1nccc2cc(CNC(=O)Cn3cnc(C(=O)NC4CCCCC4)n3)ccc12` [Compound 28, 1-(2-(((1-aminoisoquinolin-6-yl)methyl)amino)-2-oxoethyl)-N-cyclohexyl-1H-1,2,4-triazole-3-carboxamide], the IC50 on PRMT6, against PRMT1, against PRMT4 and against PRMT5-MEP50 complex was over 250 µM each time.
Regarding `CC(C)(C)c1ccc(NC(=O)c2ncn(CC(=O)NCc3ccc4c(N)nccc4c3)n2)cc1` [Compound 24, 1-(2-(((1-aminoisoquinolin-6-yl)methyl)amino)-2-oxoethyl)-N-(4-(tert-butyl)phenyl)-1H-1,2,4-triazole-3-carboxamide], the IC50 on PRMT6 was over 250 µM; against PRMT3, 41.1 µM; against PRMT5 Alone it was 227 µM; on SUV39H2, over 250 µM; against PRMT1, over 250 µM; on PRMT4, over 250 µM. The IC50 on PRMT5-MEP50 complex is over 250 µM.
As to `Cc1ccc(NC(=O)c2ncn(CC(=O)NCCn3ccc4c(N)ncnc43)n2)cc1C` [Compound 20, 1-(2-((2-(4-amino-7H-pyrrolo[2,3-d]pyrimidin-7-yl)ethyl)amino)-2-oxoethyl)-N-(3,4-dimethylphenyl)-1H-1,2,4-triazole-3-carboxamide], on SUV39H2, the IC50 was over 250 µM.
As for `CC(C)(C)c1ccc(NC(=O)c2ncn(CC(=O)NCc3ccc4c(c3)OCO4)n2)cc1` [Compound 22, 1-(2-((benzo[d][1,3]dioxol-5-ylmethyl)amino)-2-oxoethyl)-N-(4-(tert-butyl)phenyl)-1H-1,2,4-triazole-3-carboxamide], the “activity versus all MTs tested in the profiling assays” value in [1] is “inactive”.
On SUV39H2, `CC(C)(C)c1ccc(NC(=O)c2ncn(CC(=O)NCc3ccc4[nH]ncc4c3)n2)cc1` [Compound 23, 1-(2-(((1H-indazol-5-yl)methyl)amino)-2-oxoethyl)-N-(4-(tert-butyl)phenyl)-1H-1,2,4-triazole-3-carboxamide] displayed an IC50 of over 250 µM.
Turning to `Nc1ncnc2c1ncn2[C@@H]1O[C@H](CSCC[C@H](N)C(=O)O)[C@@H](O)[C@H]1O` [SAH, S-adenosylhomocysteine, reference compound], half-maximal inhibition against PRMT3 (IC50) required 1.44 µM.
Regarding `Cc1ccc(NC(=O)c2ncn(CC(=O)NCc3ccc4c(c3)OCO4)n2)cc1C` [Compound 9, 1-(2-((benzo[d][1,3]dioxol-5-ylmethyl)amino)-2-oxoethyl)-N-(3,4-dimethylphenyl)-1H-1,2,4-triazole-3-carboxamide], at GST-DOT1L [2], the “fold better activity than 8” value came to 1.5 fold.
Turning to `Nc1ncnc2c1ncn2[C@@H]1O[C@H](CNCc2ccc(OCC(=O)Nc3ccccn3)cc2)[C@@H](O)[C@H]1O` [Compound 2], the “H3K4, H3K27, and H3K36 trimethylation states” value in experiment [3] is “not changed”. Moreover, the “cellular H3K79 methylation” value with H3K79 methylation (time course of 3, 6 and 9 days) is recorded as “inhibits cellular H3K79 dimethylation; also recorded: reduced”. For the same molecule, the “competitive STD NMR with SAH” value at GST-DOT1L [4] was “competed off by SAH”.
For the molecule `CC(C)(C)c1ccc(NC(=O)c2ncn(CC(=O)NCCn3ccc4c(N)ncnc43)n2)cc1` [Compound 25, 1-(2-((2-(4-amino-7H-pyrrolo[2,3-d]pyrimidin-7-yl)ethyl)amino)-2-oxoethyl)-N-(4-(tert-butyl)phenyl)-1H-1,2,4-triazole-3-carboxamide], the IC50 at PRMT6 is over 250 µM; against PRMT3, 149 µM; on PRMT5 Alone, 187 µM; against SUV39H2, over 250 µM; against PRMT1, over 250 µM; on PRMT4, over 250 µM. This molecule displayed an IC50 against PRMT5-MEP50 complex of over 250 µM. The “H3K4me3 and H4K20me2” value in experiment [3] (day 6) was “no significant changes”. The “cellular H3K79 methylation” value with H3K79 methylation (day 6) is “dose-dependent inhibition”; in the experiment on H3K79 methylation (day 9, 30 μM), “complete inhibition”; with H3K79 methylation (day 9, 10 and 3 μM), “significant decrease”. Moreover, in experiment [5], the “cell differentiation, Wright-Giemsa stain” value is “dose-dependent cell differentiation”. In addition, the “effect on the growth of E2A-HLF cells” value in the experiment with E2A-HLF cells is “without showing any effect on the growth”. Further, the “cell growth inhibition of MLL-AF9 cells” value in experiment [6] (day 11 at 30 μM) is recorded as “complete cell growth inhibition”. Moreover, in [6] (murine established leukemia cell lines), the “killing of MLL-AF9 cells versus E2A-HLF cells” value is “selectively killed MLL-AF9”.
